According to patent publication US10105367B2, “Therapeutic thiophene-, furan-, and pyridine-fused azolopyrimidin-5-(6h)-ones” (Dart Neuroscience (Cayman) Ltd., priority 2012, dated 2018):
Values joined by “and” are separate entries in the source; they are usually repeats but may differ in a detail not shown here. Equal entries are not always repeated.

Molecular target: human PDE1B (Homo sapiens (Human), UniProt Q01064)
Experiment: PDE1B inhibitory assay (IMAP TR-FRET)
Conditions: 200 nM FAM-cAMP, Calmodulin, CaCl2; for PDE1B pIC50: negative log of half-maximal molar inhibitory concentration; for IC50: PDE1B pIC50, negative log of half-maximal molar inhibitory concentration

SMILES: COc1ccc(Cn2c(=O)n3ncnc3c3cc(CN4CCCOCC4)sc32)cc1 [Example 29, 8-((1,4-Oxazepan-4-yl)methyl)-6-(4-methoxybenzyl)thieno[3,2-e][1,2,4]triazolo[1,5-c]pyrimidin-5(6H)-one]
- PDE1B pIC50: >7

SMILES: COCOCc1cnc2c(c1)c1ncnn1c(=O)n2Cc1ccc(OC)cc1 [Example 215]
- IC50: 100 to 1000 nM

SMILES: COc1ccc(Cn2c(=O)n3ncnc3c3cc(C(O)CN4C[C@@H](C)O[C@@H](C)C4)cnc32)cc1 (stereo partly shown) [Example 268]
- PDE1B pIC50: >7

SMILES: COc1ccc(Cn2c(=O)n3ncnc3c3c(C)c(CN4C[C@@H](C)N[C@@H](C)C4)sc32)cc1 [Example 72]
- IC50: 100 to 1000 nM

SMILES: COc1ccc(Cn2c(=O)n3ncnc3c3c4c(sc32)CN(C(=O)C2CC2)CC4)c(F)c1 [Example 168]
- PDE1B pIC50: >7

SMILES: COc1ccc(Cn2c(=O)n3ncnc3c3cc(CN4CCN(S(C)(=O)=O)CC4)cnc32)cc1 [Example 252, 6-(4-methoxybenzyl)-9-((4-(methylsulfonyl)piperazin-1-yl)methyl)pyrido[3,2-e][1,2,4]triazolo[1,5-c]pyrimidin-5(6H)-one]
- IC50: 100 to 1000 nM

SMILES: COc1ccc(Cn2c(=O)n3ncnc3c3cc(-c4ccc(OC)nc4)cnc32)cc1 [Example 190]
- IC50: 100 to 1000 nM

SMILES: COc1ccc(Cn2c(=O)n3ncnc3c3c4c(sc32)CN(Cc2nccn2C)CC4)c(F)c1 [Example 138]
- PDE1B pIC50: >7

SMILES: Cc1csc2c1c1ncnn1c(=O)n2Cc1ccccc1 [Example 6]
- IC50: 100 to 1000 nM

SMILES: COc1ccc(Cn2c(=O)n3ncnc3c3cc(CN4CCOC(C)(C)C4)cnc32)cc1 [Example 223]
- IC50: 100 to 1000 nM

SMILES: C[C@@H]1CN(Cc2cnc3c(c2)c2ncnn2c(=O)n3Cc2ccc(OC(F)(F)F)cc2)C[C@H](C)O1 [Example 273, 9-(((2S,6R)-2,6-Dimethylmorpholino)methyl)-6-(4-(trifluoromethoxy)benzyl)pyrido[3,2-e][1,2,4]triazolo[1,5-c]pyrimidin-5(6H)-one]
- IC50: 100 to 1000 nM and 1000 to 10000 nM

SMILES: O=c1n(Cc2ccc(Cl)c(Cl)c2)c2sc3c(c2c2ncnn12)CCOC3 [Example 91]
- IC50: 100 to 1000 nM

SMILES: C[C@@H]1CN(Cc2cnc3c(c2)c2ncnn2c(=O)n3Cc2cc(F)cc(F)c2)C[C@H](C)O1 [Example 285]
- IC50: 1000 to 10000 nM

SMILES: COc1ccc(Cn2c(=O)n3ncnc3c3c4c(sc32)CN(Cc2ccc(F)cc2)CC4)cc1 [Example 127]
- PDE1B pIC50: >7

SMILES: CCOc1ccc(Cn2c(=O)n3ncnc3c3c4c(sc32)COCC4)cc1 [Example 97]
- IC50: 1000 to 10000 nM

SMILES: COc1ccc(Cn2c(=O)n3ncnc3c3c(C)c(CN4CC5CCC(C4)O5)sc32)cc1 [Example 67]
- PDE1B pIC50: >7

SMILES: COc1ccc(Cn2c(=O)n3ncnc3c3c4c(sc32)N(Cc2ccc(Cl)cc2)CCC4)cc1 [Example 152]
- IC50: 100 to 1000 nM

SMILES: Cc1csc2c1c1ncnn1c(=O)n2Cc1cccc(Cl)c1 [Example 11]
- IC50: 100 to 1000 nM

SMILES: COc1ccc(Cn2c(=O)n3ncnc3c3cc(C(N4CCOCC4)C(F)(F)F)cnc32)cc1 (stereo not shown) [Example 272, 6-(4-Methoxybenzyl)-9-(2,2,2-trifluoro-1-morpholinoethyl)pyrido[3,2-e][1,2,4]triazolo[1,5-c]pyrimidin-5(6H)-one]
- PDE1B pIC50: >7

SMILES: COc1ccc(Cn2c(=O)n3ncnc3c3c(C)c(Br)sc32)cc1 [Example 76, 8-Bromo-6-(4-methoxybenzyl)-9-methylthieno[3,2-e][1,2,4]triazolo[1,5-c]pyrimidin-5(6H)-one]
- IC50: 100 to 1000 nM

SMILES: C[C@@H]1CN(Cc2cnc3c(c2)c2ncnn2c(=O)n3Cc2ccc3cnn(C)c3c2)C[C@H](C)O1 [Example 288]
- PDE1B pIC50: <5

SMILES: C[C@@H]1CN(Cc2cnc3c(c2)c2ncnn2c(=O)n3Cc2ccc(F)c(F)c2)C[C@H](C)O1 [Example 302]
- IC50: 100 to 1000 nM

SMILES: CCC1CN(Cc2cnc3c(c2)c2ncnn2c(=O)n3Cc2ccc(OC)cc2)CCO1 (stereo not shown) [Example 224]
- PDE1B pIC50: >7

SMILES: C[C@@H]1CN(Cc2cnc3c(c2)c2ncnn2c(=O)n3Cc2ccc(C#N)cc2)C[C@H](C)O1 [Example 279]
- PDE1B pIC50: <5

SMILES: C[C@@H]1CN(Cc2cnc3c(c2)c2ncnn2c(=O)n3Cc2cccc(C#N)c2)C[C@H](C)O1 [Example 281]
- PDE1B pIC50: <5

SMILES: COc1ccc(Cn2c(=O)n3ncnc3c3c4c(sc32)CN(C(=O)C2CCN(C)C2)CC4)cc1 (stereo not shown) [Example 163]
- IC50: 100 to 1000 nM

SMILES: Cc1cc2c(s1)n(Cc1ccc(-c3ccccc3)cc1)c(=O)n1ncnc21 [Example 14]
- PDE1B pIC50: <5

SMILES: CSc1ccc(Cn2c(=O)n3ncnc3c3cc(CN4C[C@@H](C)O[C@@H](C)C4)cnc32)cc1 [Example 303]
- IC50: 100 to 1000 nM

SMILES: COc1ccc(Cn2c(=O)n3ncnc3c3c(C)c(CN4CCN(C)C(C)(C)C4)sc32)cc1 [Example 74]
- PDE1B pIC50: >7

SMILES: COc1ccc(Cn2c(=O)n3ncnc3c3c4c(sc32)CN(Cc2ccncn2)CC4)cc1 [Example 119]
- PDE1B pIC50: >7

SMILES: Cc1cc(Cn2c(=O)n3ncnc3c3cc(CN4C[C@@H](C)O[C@@H](C)C4)cnc32)ccc1F [Example 274]
- IC50: 100 to 1000 nM

SMILES: COc1ccc(Cn2c(=O)n3ncnc3c3cc(CN4CC5(CCOCC5)C4)sc32)cc1 [Example 38]
- PDE1B pIC50: >7

SMILES: COc1ccc(Cn2c(=O)n3ncnc3c3cc(C(O)C(F)(F)F)cnc32)cc1 (stereo not shown) [Example 271, 6-(4-Methoxybenzyl)-9-(2,2,2-trifluoro-1-hydroxyethyl)pyrido[3,2-e][1,2,4]triazolo[1,5-c]pyrimidin-5(6H)-one]
- IC50: 100 to 1000 nM

SMILES: COc1ccc(Cn2c(=O)n3ncnc3c3cc(CN4CCCN(C(C)=O)CC4)cnc32)cc1 [Example 234]
- IC50: 100 to 1000 nM

SMILES: COc1ccc(Cn2c(=O)n3ncnc3c3cc(CN4C[C@@H](C)O[C@@H](C)C4)cnc32)c(Cl)c1 [Example 296]
- IC50: 100 to 1000 nM

SMILES: COc1ccc(Cn2c(=O)n3ncnc3c3c4c(sc32)CN(CC(C)(C)C)CC4)cc1 [Example 115]
- PDE1B pIC50: >7

SMILES: COc1ccc(Cn2c(=O)n3ncnc3c3cc(CN4CCOC(C)C4)cnc32)cc1 (stereo not shown) [Example 229]
- PDE1B pIC50: >7

SMILES: COc1ccc(Cn2c(=O)n3ncnc3c3c4c(sc32)N(CC2CCOCC2)CCC4)cc1 [Example 148]
- PDE1B pIC50: >7

SMILES: C[C@@H]1CN(Cc2cnc3c(c2)c2ncnn2c(=O)n3Cc2cccc(I)c2)C[C@H](C)O1 [Example 284]
- IC50: 100 to 1000 nM

SMILES: COc1ccc(Cn2c(=O)n3ncnc3c3cc(CN4CCN(C(=O)C(F)(F)F)CC4)cnc32)cc1 [Example 254]
- IC50: 100 to 1000 nM

SMILES: COc1ccc(Cn2c(=O)n3ncnc3c3c(C)c(CN4CCOC(C)(C)C4)sc32)cc1 [Example 69]
- PDE1B pIC50: >7

SMILES: COc1ccc(Cn2c(=O)n3ncnc3c3nc(Br)cnc32)cc1 [Example 188]
- IC50: 100 to 1000 nM

SMILES: COc1ccc(Cn2c(=O)n3ncnc3c3c(C)c(CN4CCN(C(C)=O)CC4)sc32)cc1 [Example 51]
- PDE1B pIC50: >7

SMILES: COc1ccc(Cn2c(=O)n3ncnc3c3cc(CN4CCN(CC5CCOC5)CC4)cnc32)cc1 (stereo not shown) [Example 251, 6-(4-Methoxybenzyl)-9-((4-((tetrahydrofuran-3-yl)methyl)piperazin-1-yl)methyl)pyrido[3,2-e][1,2,4]triazolo[1,5-c]pyrimidin-5(6H)-one]
- IC50: 1000 to 10000 nM

SMILES: O=C(c1cnccn1)N1CCc2c(sc3c2c2ncnn2c(=O)n3Cc2ccc(Cl)cc2)C1 [Example 157, 6-(4-Chlorobenzyl)-9-(pyrazine-2-carbonyl)-8,9,10,11-tetrahydropyrido[4′,3′:4,5]thieno[3,2-e][1,2,4]triazolo[1,5-c]pyrimidin-5(6H)-one]
- PDE1B pIC50: >7

SMILES: O=c1n(Cc2ccc(-c3ccccc3)cc2)c2sc3c(c2c2ncnn12)CCCC3 [Example 86]
- IC50: 1000 to 10000 nM

SMILES: COc1ccc(Cn2c(=O)n3ncnc3c3c(C)c(CN4CCCC4)sc32)cc1 [Example 43, 6-(4-Methoxybenzyl)-9-methyl-8-(pyrrolidin-1-ylmethyl)thieno[3,2-e][1,2,4]triazolo[1,5-c]pyrimidin-5(6H)-one]
- IC50: 100 to 1000 nM

SMILES: COc1ccc(Cn2c(=O)n3ncnc3c3c(C)c(CN(C)C)sc32)cc1 [Example 45]
- PDE1B pIC50: >7

SMILES: COc1ccc(Cn2c(=O)n3ncnc3c3cc(CN4CCN(S(C)(=O)=O)CC4)sc32)cc1 [Example 35]
- PDE1B pIC50: >7

SMILES: COc1ccc(Cn2c(=O)n3ncnc3c3cc(CN4CCOC(C)(C)C4)sc32)cc1 [Example 36]
- PDE1B pIC50: >7

SMILES: COc1ccc(Cn2c(=O)n3ncnc3c3c4c(sc32)CN(Cc2ccccn2)CC4)c(F)c1 [Example 139]
- PDE1B pIC50: >7

SMILES: COc1ccc(Cn2c(=O)n3ncnc3c3c4c(sc32)CN(C(=O)C2CCOC2)CC4)c(F)c1 (stereo not shown) [Example 167]
- PDE1B pIC50: >7

SMILES: COc1ccc(Cn2c(=O)n3ncnc3c3nc(CN4C[C@@H](C)O[C@@H](C)C4)cnc32)cc1 [Example 231]
- IC50: 100 to 1000 nM

SMILES: O=c1n(Cc2ccc(Cl)cc2F)c2sc3c(c2c2ncnn12)CCOC3 [Example 94]
- IC50: 100 to 1000 nM

SMILES: COc1ccc(Cn2c(=O)n3ncnc3c3cc(C(F)CN4C[C@@H](C)O[C@@H](C)C4)cnc32)cc1 (stereo partly shown) [Example 270]
- PDE1B pIC50: >7

SMILES: COc1ccc(Cn2c(=O)n3ncnc3c3ccc(CN4CCN(S(C)(=O)=O)CC4)nc32)cc1 [Example 261]
- IC50: 100 to 1000 nM

SMILES: CC(C)CCc1cc2c(s1)n(Cc1cccc(Cl)c1)c(=O)n1ncnc21 [Example 20]
- IC50: 1000 to 10000 nM

SMILES: COc1ccc(Cn2c(=O)n3ncnc3c3c(CN4C[C@@H](C)O[C@@H](C)C4)csc32)cc1 [Example 78, 9-(((2S,6R)-2,6-Dimethylmorpholino)methyl)-6-(4-methoxybenzyl)thieno[3,2-e][1,2,4]triazolo[1,5-c]pyrimidin-5(6H)-one]
- IC50: 100 to 1000 nM

SMILES: O=c1n(Cc2ccc(-c3ccccc3)cc2)c2sccc2c2ncnn12 [Example 4]
- PDE1B pIC50: <5

SMILES: C[C@@H]1CN(Cc2cnc3c(c2)c2ncnn2c(=O)n3Cc2ccc(S(C)(=O)=O)cc2)C[C@H](C)O1 [Example 282]
- PDE1B pIC50: <5

SMILES: COc1ccc(Cn2c(=O)n3ncnc3c3cc(CN4C[C@@H](C)OC[C@H]4C)cnc32)cc1 [Example 248]
- IC50: 100 to 1000 nM

SMILES: COc1ccc(Cn2c(=O)n3ncnc3c3c4c(sc32)NCCC4)cc1OC [Example 100]
- IC50: 1000 to 10000 nM

SMILES: O=c1n(Cc2ccc(Cl)cc2F)c2sc3c(c2c2ncnn12)CCN(Cc1ncccn1)C3 [Example 132]
- PDE1B pIC50: >7

SMILES: COc1ccc(Cn2c(=O)n3ncnc3c3cc(CN4CCC5(CCOCC5)N4C)cnc32)cc1 [Example 228]
- PDE1B pIC50: >7
